Experimental findings from US4786755A, “Diphenic acid monoamides” (Warner-Lambert Company, priority 1986, dated 1988) are described below.

Read-outs that look alike come from different tables or passages of the source.

One assay deals with T1, leukotriene receptor (Cavia porcellus, UniProt Q2NNR5).
T1 construct: 20 mg original tissue wet weight of guinea pig lung membranes; tissue Kuiper Rabbit Farm, Gary, IN (animals); host or cells: guinea pig lung, crude membranes
T1 sequence (Q2NNR5 1-340): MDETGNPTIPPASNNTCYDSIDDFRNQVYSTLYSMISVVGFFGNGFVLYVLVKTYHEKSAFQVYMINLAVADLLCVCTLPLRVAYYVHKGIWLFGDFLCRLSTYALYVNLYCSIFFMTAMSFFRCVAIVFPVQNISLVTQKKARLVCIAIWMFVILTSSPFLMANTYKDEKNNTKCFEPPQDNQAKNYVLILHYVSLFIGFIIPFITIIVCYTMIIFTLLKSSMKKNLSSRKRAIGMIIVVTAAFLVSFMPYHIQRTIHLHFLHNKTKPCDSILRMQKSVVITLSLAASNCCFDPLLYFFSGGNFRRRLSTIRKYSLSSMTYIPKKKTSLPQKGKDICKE
Description: Binding of ^3 H-Leukotriene D4 to Guinea Pig Lung Membranes (RBL). The following applies: ^3 H-LTD4, guinea pig lung membranes; read-out: IC50 RBL1. The procedure:
Additionally, the activity, of the compounds having the Formula I of the present invention is determined by the well known leukotriene receptor binding assay that is described by R. F. Bruns, W. J. Thomsen and T. A. Pugsley in Life Sciences, 33, 645 (1983) or the Herxheimer in vivo antiallergy test described in H. Herxheimer, J. Physiol. (London), Vol. 177, p. 251 (1952).
Binding of ^3 H-Leukotriene D4 to Guinea Pig Lung Membranes (RBL)
[14,15-^3 H]leukotriene D4 (^3 H-LTD4) (25 Ci/mmol and 40 Ci/mmol) is purchased from New England Nuclear. Unlabeled LTC4 is a gift of Ono Pharmaceuticals (Japan). LTC4, LTD4, and LTE4 are purchased as methyl esters from Paesel GmbH (Frankfurt, W. Germany). Concentrations of the Paesel leukotrienes are calculated from their absorbance at 280 nm. Leukotriene esters are saponified overnight under N2 in 3.3% potassium carbonate at room temperature. Tritiated leukotrienes are stored as received from New England Nuclear at -20° C. Ono LTC4 (5 μg/ml is stored at -60° C. in phosphate buffer pH 6.8. Saponified Paesel leukotrienes are stored at -60° C. in 3.3% potassium carbonate (pH 9.0-9.5). Aliquots of leukotrienes are taken from stock solutions immediately after thawing, after which the stock solutions are immediately refrozen. 2-Amino-2-(hydroxymethyl)-1,3-propanediol (Tris) is Sigma pH 7.7 pre-set crystals, and dimethylsulfoxide is Aldrich Gold Label.
Preparation of crude lung membranes
Two pairs of lungs (1.3 g) from freshly sacrificed 300 g male guinea pigs (older animals gave substantially lower binding) from Kuiper Rabbit Farm, Gary, IN are disrupted with a Polytron PT 10 (setting 4) for 30 seconds in 20 ml ice-cold 50 mM Tris adjusted with HCl to pH 7.7 at 25° C. (Tris buffer), filtered through a single layer of gauze to remove connective tissue, and centrifuged at 50,000 xg for ten min. The pellet is resuspended by homogenization with a Polytron in 20 ml Tris buffer, centrifuged at 50,000 xg for ten min., resuspended, incubated at 37° C. for 30 minutes, and centrifuged again. The final pellet is resuspended in Tris buffer and either used fresh or stored at -70° C.
All incubations are in triplicate for 60 minutes at 25° C. in 12×75 mm polystyrene tubes containing 1 ml Tris buffer with 20 mg original tissue wet weight of guinea pig lung membranes, 0.2 nM ^3 H-LTD4 (6,000-11,000 cpm), 10 mM MgCl2, and 1% dimethylsulfoxide. Leukotrienes are diluted in Tris buffer. All other test compounds are dissolved at 10 mM in dimethylsulfoxide on the same day as the experiment, and diluted in dimethylsulfoxide to 100× the final incubation concentration. Control incubations receive an equal volume (10 μl) of dimethylsulfoxide; the resulting concentration of dimethylsulfoxide had no effect on binding. ^3 H-LTD4 is diluted to 2 nM in Tris buffer. The membrane suspension (20 mg/0.89 ml) contains sufficient MgCl2 to give 10 mM final concentration in the incubation. […] All additions are performed at 0° C. Immediately after the last addition, the incubation is initiated by agitating the rack of tubes on a vortex mixer and warming to 25° C. in a water bath. Tubes are vortexed at least once more during the incubation to ensure that the membranes remained suspended. Incubations are terminated after 60 minutes by filtering under reduced pressure through 25 mm Whatman GF/B filters followed by rapid washing three times with 4 ml of ice-cold Tris buffer. Filters are added to scintillation vials with 8 ml Formula 947 (New England Nuclear), left overnight, shaken, and the radioactivity counted in a scintillation counter (efficiency 40%). Nonspecific binding, defined as binding of ^3 H-LTD4 in the presence of 100 nM LTC4, is 300-500 cpm for all lots of ^3 H-LTD4. Binding to the filters in the absence of tissue is about 100 cpm, and is not affected by unlabeled LTC4. Specific binding, defined as total binding minus nonspecific binding, varied considerably from lot to lot of ^3 H-LTD4. […]

A further assay relates to Human Basophils. Description: Histamine Release from Human Basophils (HHB). Type of assay: cell-based. As to conditions: Homo sapiens, 33 μM cpd. From the text: Histamine Release from Human Basophils (HHB) Procedure for Quantitating Active Histamine Release, and its Inhibition by Drugs, from Basophils of Human Blood Using an Automated Fluorometric Histamine Assay
Mediator (histamine) release from human blood basophils is an assay which provides a model for evaluating potential antiallergy (mediator release inhibitors) compounds.
Blood from allergic donors is obtained from volunteers through the Community Research Clinic. The leukocytes are removed after Hespan® sedimentation, washed and concentrated using calcium and magnesium free Hepes buffered saline and resuspended in Hepes Hepes buffered saline with 1 mM calcium and magnesium added back. The cells are incubated briefly at room temperature with either buffer alone (for measuring spontaneous release and challenge agent stimulated release) 6% perchloric acid (for measuring total available histamine in the cells) or drug at various concentrations. The cells are then either treated with buffer alone (to measure control spontaneous and drug effect on spontaneous release) or appropriate challenge agent (e.g., anti-IgE, antigen) mixed and incubated for 45 minutes at 37° C. in a shaking water bath. The reaction is stopped by centrifugation and the supernate is poured into autoanalyzer sample cups and samples assayed for assayed for histamine content using an automated fluorometric assay. By comparing the histamine release of drug-treated cells and the challenge agent controls, drug inhibition of mediator (histamine) release can be evaluated.
Histamine release is induced by (1) an aqueous antigen extract (short rageweed or house dust), or (2) anti-IgE antisera. Whole human blood is obtained from volunteers through the Community Research Clinic (CRC-92). Volunteers are chosen on the basis of adequate histamine release induced by antigen, or antiIgE antisera challenge. Leukocytes are incubated in vitro with the challenge agents at several concentrations. Dose-response curves for each volunteer, using each challenge agent, are generated. Test compounds are evaluated for inhibition of a near maximal response to one or more challenge agents. By including appropriate controls, it is possble to measure the effect of the test compound, at various concentrations, in several ways: (1) the effect of the compound on histamine release for each challenge agent; (2) the effect of the test compound on spontaneous release of histamine in the absence of the challenge agent (buffer alone); and (3) the effect of the test compound on the histamine assay.
Histamine is assayed using an automated continuous flow system which quantitates samples of 0.4 ml or more in volume, and concentrations of approximately 0.5 ng/ml or more. The rate of analysis is 30 samples/hour.
Methods of preparing leukocytes for this assay are described by Theuson, et al, J. of Immunology, Vol. 123, p. 426 (1979).
Samples are run in triplicate, using either 1.5 ml polypropylene capped reaction tubes, or 5.0 ml plastic uncapped tubes. Test compounds and challenge agents are prepared in HACM buffer, as described above. Fixed volume pipettes are used.
Test compound or vehicle control is added to three reaction tubes at 1.5×the final desired concentration (i.e., 400 μl of test compound per 600 μl total reaction volume). One hundred μl of cells is added to each tube and the mixture is incubated for eight minutes at room temperature, and two minutes at 37° C. before antigen or other stimulus challenge. One hundred μl of the challenge agent at 6× the final concentration is then added, and the final mixture is incubated at 37° C. for 45 minutes in a shaking water bath. This ensures that the cell preparation is constantly in suspension. The reaction is stopped by centrifugation at 2000 RPM for three minutes at 4° C. The supernate (.perspectiveto.500 μl) is poured into 2.0 ml autoanalyzer beakers and assayed for histamine by the fluorometric method. […]

The subject of assay [1] is Isolated Guinea Pig Lung Parenchyma. Description: Smooth Muscle Receptor Agonism-Antagonism Activity Evaluations In Vitro (IVAS), LTC4-induced contraction. Type of assay: cell-based.
Description: Smooth Muscle Receptor Agonism-Antagonism Activity Evaluations In Vitro (IVAS) Isolated Guinea Pig Lung Parenchyma
The potency of a test compound for receptor stimulation or antagonism, for example, can easily be determined since the concentration of the compound to which the muscle cell, or specialized responsive area on this cell, is exposed can be easily controlled and correlated with the recorded activity of muscle contraction or relaxation.
The procedures described herein are specifically concerned with the definition of a test drug action on isolated lung strips. Drug action is characterized either by an action per se on the tissues or by interaction with known smooth muscle receptor stimulants or antagonists.
Usually, the tests will be used to evaluate the ability of a test compound to antagonize the contraction induced by standard agonists in this case LTC4. A relative potency is derived by comparison with one of the standard blocking drugs. In caution, relative potencies of test compounds to known standards are valid only if full dose response curves are generated and the compound compared generate parallel dose/response curves with common maxima. Appropriate "within-trial" comparisons are also necessary.
Molecular antagonists compete with the agonist for the receptor. […] A physiological antagonist produces a response by action on a different receptor that causes an effect in opposition to the agonism.
A permanent isolated bath system is used which facilitates the vertical suspension of a segment of tissue in a small volume of a specific nutritive buffer. Frittered glass terminals provide dispersed bubbles of 95% oxygen and 5% carbon dioxide at the base of the individual tissue baths and the buffer reservoir. All baths and the reservoir are double-jacketed and water at 37° C. is circulated through the jacket of the baths to provide stable temperature regulation. The baths are arranged so that fresh solution from the reservoir passes through a jacketed glass coil to the base of the bath. The bubbling gas stirs the bath solution. During equilibration, fresh solution enters and excess solution is allowed to overflow. Unless a particular drug is required throughout the experiment and it is incorporated in the buffer, individual drugs are introduced directly into the bath by long hypodermic needles to the base of the bath without disturbing the tissue. Drugs are removed by rapidly draining the tissue bath from the bottom and refilling. Tissues are washed a minimum of six times. The emptying and refilling sequence takes only five seconds.
The contraction and relaxation of the smooth muscle preparation can be recorded either isotonically (change in length) or isometrically (change in tension). Isometric transducers are more sensitive and proportional. Isometric contractions are recorded electronically using Grass FT 0.03C force displacement transducers and Beckman Dynagraph recorders. The tissue is suspended vertically with one end of the segment anchored to the bottom of the bath and the other end attached to the mechanical electrical transducer muscle level. The electrical output of this transducer moves a pen on a moving chart in proportion to the force displacement.
Lung tissue is obtained from normal male guinea pigs. The heart and lungs are removed as a unit, placed in buffer, and the lungs are perfused with buffer by the spontaneously beating heart for several minutes.
The mark [2] stands for this setting: Tripeptide challenge, read-out: HHB (Tripeptide), percent inhibition of histamine release.
[3] abbreviates: antigen challenge, read-out: HHB (antigen), percent inhibition of histamine release.

Regarding `O=C(O)c1ccccc1-c1ccccc1C(=O)Nc1ccc(CCc2ccc(C(F)(F)F)cc2)cc1` [Example 10], on leukotriene receptor, the IC50 is 9.7 µM. Further, the inhibition at 33 µM with Human Basophils (setting [2]) worked out at 74%; with Human Basophils (setting [3]), 62%.

Turning to `O=C(O)c1ccccc1-c1ccccc1C(=O)Nc1ccccc1CCc1ccc(Cl)c(Cl)c1` [Example 12, [1,1'-Biphenyl]-2-carboxylic acid, 2'-[[[2-[2-(3,4-dichlorophenyl)ethyl]phenyl]amino]carbonyl]-], the IC50 at leukotriene receptor was found to be 13.7 µM. Also, the figures for the inhibition at 33 µM in the assay with Human Basophils (setting [2]) and in the assay with Human Basophils (setting [3]) were 99% and -42%, respectively.

Regarding `CC(C)(C)c1cc(CCc2ccc(NC(=O)c3ccccc3-c3ccccc3C(=O)O)cc2)cc(C(C)(C)C)c1O` [Example 14, [1,1'-Biphenyl]-2-carboxylic acid, 2'-[[[4-[2-[3,5-bis(1,1-dimethylethyl)-4-hydroxyphenyl]ethyl]phenyl]amino]carbonyl]-], at leukotriene receptor, the IC50 was determined as 3.7 µM. Also, the values for the inhibition at 33 µM in the assay with Human Basophils (setting [2]) and in the assay with Human Basophils (setting [3]) were 96% and 41%, respectively.

In the case of `O=C(O)c1ccccc1-c1ccccc1C(=O)Nc1cccc(Cc2ccc(Cl)c(Cl)c2)c1` [Example 17, [1,1'-Biphenyl]-2-carboxylic acid, 2'-[[[3-[(3,4-dichlorophenyl)methyl]phenyl]amino]carbonyl]-], at leukotriene receptor, the IC50 amounted to 10.5 µM. Further, in the assay on Human Basophils (setting [2]), the inhibition at 33 µM is 97%.

For `Cc1ccc(CCc2ccc(NC(=O)c3ccccc3-c3ccccc3C(=O)O)cc2)cc1` [Example 18, [1,1'-Biphenyl]-2-carboxylic acid, 2'-[[[4-[2-(4-methylphenyl)ethyl]phenyl]amino]carbonyl]-], the IC50 on leukotriene receptor was found to be 16.5 µM. The inhibition at 33 µM in the assay on Human Basophils (setting [2]) was 98%; with Human Basophils (setting [3]) it was 60%.

Consider `CC(CC(=O)CCc1ccc(NC(=O)c2ccccc2-c2ccccc2C(=O)O)cc1)c1ccccc1` (stereo not shown) [Example 57, [1,1'-Biphenyl]-2-carboxylic acid, 2'-[[[4-[5-phenyl-3-oxohexyl]phenyl]amino]carbonyl]-], for which the IC50 at leukotriene receptor turned out to be 44.9 µM.

Take `O=C(O)c1ccccc1-c1ccccc1C(=O)Nc1ccc(CCCCCc2ccc(Cl)c(Cl)c2)cc1` [Example 58, [1,1'-Biphenyl]-2-carboxylic acid, 2'-[[[4-[5-(3,4-dichlorophenyl]pentyl]phenyl]amino]carbonyl]-]: the IC50 on leukotriene receptor was determined as 7.3 µM.

Take `CCCCC/C=C\C\C=C/C=C/C=C/[C@@H](SC[C@H](NC(=O)CC[C@H](N)C(=O)O)C(=O)NCC(=O)O)[C@@H](O)CCCC(=O)O` [LTC4, leukotriene C4]: the “response (r1), of maximum” value in assay [1] (1 ng/ml LTC4, isolated lung strip) was 15-20%.

For `NCCc1c[nH]cn1` [histamine], the “contraction, of maximum” value in assay [1] (3×10^-5 M, isolated guinea pig lung strip) is reported as “approximately 75%”. Further, the minimal effective concentration in assay [1] (Cavia porcellus, isolated guinea pig lung strip, read-out: threshold dose (contraction of lung strip)) is roughly 3 µM.
